Results as given in patent publication US20220259593A1, “CONTROL OF MAMMALIAN GENE DOSAGE USING CRISPR” (The Regents of the University of California, priority 2019, published 2022).

System: K562 CRISPRi cells
Assay: Perturb-seq pooled growth measurement (sgRNA counts, growth phenotype γ, relative activity)
Format: cell-based, human
Conditions: sequencing read counts; for Perturb-seq pooled growth sgRNA counts, d5: 5 days of growth (day seven after transduction); for Perturb-seq pooled growth sgRNA counts, d10: 10 days of growth (day twelve after transduction); for Perturb-seq pooled growth sgRNA counts, T0: T0 = day two after transduction
Source text: Finally, we sought to use intermediate-activity sgRNAs to explore relationships between expression levels of various genes and the resulting cellular phenotypes. To simultaneously measure gene expression levels and obtain rich phenotypes for a variety of sgRNA series, we used Perturb-seq, an experimental strategy that enables matched capture of the transcriptome and the identity of an expressed sgRNA for each individual cell in pools of cells (27, 31-33) (FIG. 12A). […] In addition to the single-cell transcriptomes, we measured bulk growth phenotypes conferred by sgRNAs in these cells.
To measure the growth rate defects conferred by each sgRNA for comparison with the transcriptional phenotypes, samples of 500,000 transduced cells were taken from the same transduced cell population used in the Perturb-seq experiment on days two, seven, and twelve after transduction. Genomic DNA was extracted using the Nucleospin Blood kit (Macherey-Nagel) and sgRNA amplicons were prepared as described previously and above (19), albeit with no genomic DNA digestion or gel purification, and sequenced on HiSeq 4000 as described above for the other screens. Growth phenotypes were calculated by comparing normalized sgRNA abundances at day seven and twelve to those at day two, as described above. […] Relative sgRNA activities measured at day seven (five days of growth) were used to assign sgRNA activities in further analysis.

Substance: ALDOA_+_30077139.23-P1P2_00: sgRNA targeting ALDOA, GGTCACCAGGACCCCTTCTG, SEQ ID NO: 156 (listed as DNA, chemistry not fully specified)
- Perturb-seq pooled growth sgRNA counts, d5: 4056
- Perturb-seq pooled growth sgRNA counts, d10: 2781
- Perturb-seq pooled growth sgRNA counts, T0: 5280

Substance: ALDOA_+_30077139.23-P1P2_06: sgRNA targeting ALDOA, GGTCACCAGGATCCCTTCTG, SEQ ID NO: 157 (listed as DNA, chemistry not fully specified)
- Perturb-seq pooled growth sgRNA counts, d5: 4831
- Perturb-seq pooled growth sgRNA counts, d10: 3500
- Perturb-seq pooled growth sgRNA counts, T0: 6015

Substance: ALDOA_+_30077139.23-P1P2_07: sgRNA targeting ALDOA, GGTCACCAGGCCCCCTTCTG, SEQ ID NO: 158 (listed as DNA, chemistry not fully specified)
- Perturb-seq pooled growth sgRNA counts, d5: 4284
- Perturb-seq pooled growth sgRNA counts, d10: 3028
- Perturb-seq pooled growth sgRNA counts, T0: 4830

Substance: ALDOA_+_30077139.23-P1P2_13: sgRNA targeting ALDOA, GGTCACCAGGACCCCTTTTG, SEQ ID NO: 160 (listed as DNA, chemistry not fully specified)
- Perturb-seq pooled growth sgRNA counts, d5: 16944
- Perturb-seq pooled growth sgRNA counts, d10: 26890
- Perturb-seq pooled growth sgRNA counts, T0: 6699

Substance: ALDOA_+_30077139.23-P1P2_14: sgRNA targeting ALDOA, GGTCACCAGGACCGCTTCTG, SEQ ID NO: 159 (listed as DNA, chemistry not fully specified)
- Perturb-seq pooled growth sgRNA counts, d5: 5347
- Perturb-seq pooled growth sgRNA counts, d10: 6076
- Perturb-seq pooled growth sgRNA counts, T0: 3603

Substance: ATP5E_−_57607036.23-P1P2_00: sgRNA targeting ATP5E, GGTGTCCAGGGGCACTCTGT, SEQ ID NO: 151 (listed as DNA, chemistry not fully specified)
- Perturb-seq pooled growth sgRNA counts, d5: 12109
- Perturb-seq pooled growth sgRNA counts, d10: 9475
- Perturb-seq pooled growth sgRNA counts, T0: 8197

Substance: ATP5E_−_57607036.23-P1P2_01: sgRNA targeting ATP5E, GGTGTCCTGGGGCACTCTGT, SEQ ID NO: 152 (listed as DNA, chemistry not fully specified)
- Perturb-seq pooled growth sgRNA counts, d5: 10487
- Perturb-seq pooled growth sgRNA counts, d10: 8806
- Perturb-seq pooled growth sgRNA counts, T0: 7774

Substance: ATP5E_−_57607036.23-P1P2_04: sgRNA targeting ATP5E, GGTGTCCAGGAGCACTCTGT, SEQ ID NO: 154 (listed as DNA, chemistry not fully specified)
- Perturb-seq pooled growth sgRNA counts, d5: 13256
- Perturb-seq pooled growth sgRNA counts, d10: 14860
- Perturb-seq pooled growth sgRNA counts, T0: 7209

Substance: ATP5E_−_57607036.23-P1P2_14: sgRNA targeting ATP5E, GGTGTCCAGGGGCACTGTGT, SEQ ID NO: 155 (listed as DNA, chemistry not fully specified)
- Perturb-seq pooled growth sgRNA counts, d5: 10750
- Perturb-seq pooled growth sgRNA counts, d10: 15257
- Perturb-seq pooled growth sgRNA counts, T0: 4611

Substance: ATP5E_−_57607036.23-P1P2_16: sgRNA targeting ATP5E, GGTGTCCAGGGGCGCTCTGT, SEQ ID NO: 153 (listed as DNA, chemistry not fully specified)
- Perturb-seq pooled growth sgRNA counts, d5: 9571
- Perturb-seq pooled growth sgRNA counts, d10: 9964
- Perturb-seq pooled growth sgRNA counts, T0: 6210

Substance: BCR_+_23523092.23-P1P2_00: sgRNA targeting BCR, GCGCGCGGGGCCCGTCTCAG, SEQ ID NO: 125 (listed as DNA, chemistry not fully specified)
- Perturb-seq pooled growth sgRNA counts, d5: 2250
- Perturb-seq pooled growth sgRNA counts, d10: 2333
- Perturb-seq pooled growth sgRNA counts, T0: 9644

Substance: BCR_+_23523092.23-P1P2_04: sgRNA targeting BCR, GCGCGCGGAGCCCGTCTCAG, SEQ ID NO: 127 (listed as DNA, chemistry not fully specified)
- Perturb-seq pooled growth sgRNA counts, d5: 1660
- Perturb-seq pooled growth sgRNA counts, d10: 2119
- Perturb-seq pooled growth sgRNA counts, T0: 5355

Substance: BCR_+_23523092.23-P1P2_05: sgRNA targeting BCR, GCGCGCGGCGCCCGTCTCAG, SEQ ID NO: 128 (listed as DNA, chemistry not fully specified)
- Perturb-seq pooled growth sgRNA counts, d5: 12165
- Perturb-seq pooled growth sgRNA counts, d10: 15537
- Perturb-seq pooled growth sgRNA counts, T0: 13439

Substance: BCR_+_23523092.23-P1P2_07: sgRNA targeting BCR, GCGCGCGGGGCTCGTCTCAG, SEQ ID NO: 126 (listed as DNA, chemistry not fully specified)
- Perturb-seq pooled growth sgRNA counts, d5: 1744
- Perturb-seq pooled growth sgRNA counts, d10: 2183
- Perturb-seq pooled growth sgRNA counts, T0: 8081

Substance: BCR_+_23523092.23-P1P2_13: sgRNA targeting BCR, GCGCGCGGGGCCCATCTCAG, SEQ ID NO: 130 (listed as DNA, chemistry not fully specified)
- Perturb-seq pooled growth sgRNA counts, d5: 5668
- Perturb-seq pooled growth sgRNA counts, d10: 7063
- Perturb-seq pooled growth sgRNA counts, T0: 4304

Substance: BCR_+_23523092.23-P1P2_15: sgRNA targeting BCR, GCGCGCGGGGCCCGTCGCAG, SEQ ID NO: 129 (listed as DNA, chemistry not fully specified)
- Perturb-seq pooled growth sgRNA counts, d5: 6829
- Perturb-seq pooled growth sgRNA counts, d10: 8085
- Perturb-seq pooled growth sgRNA counts, T0: 5377

Substance: CAD_+_27440280.23-P1P2_00: sgRNA targeting CAD, GGCTGGAGAGAAGCCGGGCG, SEQ ID NO: 20 (listed as DNA, chemistry not fully specified)
- Perturb-seq pooled growth sgRNA counts, d5: 2464
- Perturb-seq pooled growth sgRNA counts, d10: 785
- Perturb-seq pooled growth sgRNA counts, T0: 8671

Substance: CAD_+_27440280.23-P1P2_03: sgRNA targeting CAD, GGCTGGTGAGAAGCCGGGCG, SEQ ID NO: 102 (listed as DNA, chemistry not fully specified)
- Perturb-seq pooled growth sgRNA counts, d5: 2087
- Perturb-seq pooled growth sgRNA counts, d10: 907
- Perturb-seq pooled growth sgRNA counts, T0: 7290

Substance: CAD_+_27440280.23-P1P2_06: sgRNA targeting CAD, GGCTGGAGAGTAGCCGGGCG, SEQ ID NO: 104 (listed as DNA, chemistry not fully specified)
- Perturb-seq pooled growth sgRNA counts, d5: 4967
- Perturb-seq pooled growth sgRNA counts, d10: 4365
- Perturb-seq pooled growth sgRNA counts, T0: 6199

Substance: CAD_+_27440280.23-P1P2_07: sgRNA targeting CAD, GGCTGGAGCGAAGCCGGGCG, SEQ ID NO: 103 (listed as DNA, chemistry not fully specified)
- Perturb-seq pooled growth sgRNA counts, d5: 6008
- Perturb-seq pooled growth sgRNA counts, d10: 4019
- Perturb-seq pooled growth sgRNA counts, T0: 13241

Substance: CAD_+_27440280.23-P1P2_13: sgRNA targeting CAD, GGCTGGAGAGAAGCCTGGCG, SEQ ID NO: 105 (listed as DNA, chemistry not fully specified)
- Perturb-seq pooled growth sgRNA counts, d5: 17097
- Perturb-seq pooled growth sgRNA counts, d10: 19130
- Perturb-seq pooled growth sgRNA counts, T0: 11874

Substance: CDC23_−_137548987.23-P1P2_00: sgRNA targeting CDC23, GACAGCCACCGGGACCATGG, SEQ ID NO: 18 (listed as DNA, chemistry not fully specified)
- Perturb-seq pooled growth sgRNA counts, d5: 757
- Perturb-seq pooled growth sgRNA counts, d10: 854
- Perturb-seq pooled growth sgRNA counts, T0: 8182

Substance: CDC23_−_137548987.23-P1P2_02: sgRNA targeting CDC23, GACAGCTACCGGGACCATGG, SEQ ID NO: 98 (listed as DNA, chemistry not fully specified)
- Perturb-seq pooled growth sgRNA counts, d5: 832
- Perturb-seq pooled growth sgRNA counts, d10: 1192
- Perturb-seq pooled growth sgRNA counts, T0: 7014

Substance: CDC23_−_137548987.23-P1P2_04: sgRNA targeting CDC23, GACAGCCAACGGGACCATGG, SEQ ID NO: 100 (listed as DNA, chemistry not fully specified)
- Perturb-seq pooled growth sgRNA counts, d5: 1646
- Perturb-seq pooled growth sgRNA counts, d10: 1646
- Perturb-seq pooled growth sgRNA counts, T0: 8019

Substance: CDC23_−_137548987.23-P1P2_08: sgRNA targeting CDC23, GACAGCCATCGGGACCATGG, SEQ ID NO: 99 (listed as DNA, chemistry not fully specified)
- Perturb-seq pooled growth sgRNA counts, d5: 1531
- Perturb-seq pooled growth sgRNA counts, d10: 1710
- Perturb-seq pooled growth sgRNA counts, T0: 8986

Substance: CDC23_−_137548987.23-P1P2_11: sgRNA targeting CDC23, GACAGCCACCGGGACCACGG, SEQ ID NO: 101 (listed as DNA, chemistry not fully specified)
- Perturb-seq pooled growth sgRNA counts, d5: 14320
- Perturb-seq pooled growth sgRNA counts, d10: 16682
- Perturb-seq pooled growth sgRNA counts, T0: 12707

Substance: COX11_+_53045977.23-P1P2_00: sgRNA targeting COX11, GGCTCTGGCGTCCTGGATGG, SEQ ID NO: 141 (listed as DNA, chemistry not fully specified)
- Perturb-seq pooled growth sgRNA counts, d5: 11785
- Perturb-seq pooled growth sgRNA counts, d10: 6198
- Perturb-seq pooled growth sgRNA counts, T0: 8084

Substance: COX11_+_53045977.23-P1P2_03: sgRNA targeting COX11, GGCTCTGTCGTCCTGGATGG, SEQ ID NO: 142 (listed as DNA, chemistry not fully specified)
- Perturb-seq pooled growth sgRNA counts, d5: 16852
- Perturb-seq pooled growth sgRNA counts, d10: 9184
- Perturb-seq pooled growth sgRNA counts, T0: 11251
